This note sets out measurements from US5317010A, “Parathyroid hormone analogues substituted at AA 25, 26, 27, and use in osteoporosis treatment” (Pang; Peter K. T., priority 1991, dated 1994).

Entries after “also recorded” stand apart in the source; their conditions may differ. Ends that are not written are not given here.

One data set relates to Sprague-Dawley rats. The data set can be described thus: In vivo blood pressure measurement in anaesthetized rats. As for the experimental part:
Sprague-Dawley (S-D) rats were anaesthetized with pentobarbital and a cannula was inserted into the carotid artery. The rats were kept sedated during the procedure and were injected with PTH peptides only when the blood pressure of the rats were stable. Peptides were injected through a cannula in the jugular vein, in amounts of 1, 3 and 5 or more μg/kg and the mean systolic and diastolic blood pressure was monitored continuously throughout the procedure. Results are reported with comparison to bPTH-(1-34).

Data set [1] relates to UMR-106 rat osteosarcoma cells. As to the kind of experiment: Intracellular free calcium concentration (FURA-2) with KCl stimulation. It is filed as cell-based. The following applies: cultured UMR osteoblast cells, in the presence of KCl. Here is the method: Because osteoporosis is a progressive syndrome, a model is required and the use of cultured osteoblasts of the UMR-106.rat osteosarcoma cells, ATCC CRL 1661 have been used as the model. Uptake of calcium in these cells has been monitored using the FURA-2 method, wherein a fluorescent dye which is specific for calcium is used as a marker for calcium change into the cells. Cells are incubated with 1-10 μM of the acetomethoxy ester of FURA-2 for 30-60 minutes. Upon uptake, the ester is hydrolyzed to release free FURA-2, which selectively binds free Ca^2+. FURA-2 has a characteristic fluorescence spectrum, which wavelength is shifted when the dye binds to free Ca^2+. According to the method, Ca^2+ which is present in the cell can be quantified by exciting the dye at two different wavelengths, 340 and 380 nm. The emission fluorescence is measured at 510 nm. […] It is conventional to report the concentration of calcium within the cell in terms of the fluorescence ratio, the 340/380 ratio. […]
Intracellular free calcium concentration was measured using the fluorescent dye FURA-2 according to the method of Grynkiewicz et al., J. Biol. Chem., 260, 3440 (1985) and Pang et al., P. N. A. S. (USA), 87, 623 (1990). […] Quantitation is obtained by exciting the dye at two different wavelengths, preferably 340 and 380 nm and measuring the fluorescent emission at 510 nm. […]

For data set [2], the system named is right atrial tissue of Sprague-Dawley rats. The data set can be described thus: In vitro atrial contractility and contraction rate measurement. The following applies: Sprague-Dawley rat right atrium; for effect on contraction rate of right atrial tissue: FIGS. 24-25. An excerpt: We have also developed a method of modeling the chronotropic effects of natural and synthetic chemicals using the right atrium from Sprague-Dawleyrats and measuring the change in the force and rate of atrium contraction. This method and the effects of bovine PTH (1-34) in this system are described in Tenner et al, The Canadian Journal of Physiology and Pharmacology, Volume 61, No. 10 (1983) pp. 1162-1167. […] FIGS. 24-25 illustrate the effect of the PTH analogues of this invention as measured using this in vitro technique.
The assay was performed according to Tenner et al., Canadian Journal of Physiology and Pharmacology, Vol. 61, No. 10 (1983) pp. 1162-1167. Sprague-Dawley rats weighing between 100 and 250 g were treated with heparin (500 IU, i.p.) 15 minutes prior to decapitation. Thoracotomies were performed and the heart rapidly excised and placed in a cold physiological salt solution (PSS) having the following composition (in millimolar): NaCl, 120; KCl, 5.63; CaCl2, 2.0; MgCl2, 2.1; NAHCO3, 25.0; dextrose, 9.7. The solution was continuously aerated by a gas mixture of 95% O2 -5% CO2. The right atrium was isolated and suspended in a tissue chamber containing 20 mL of PSS at 37° C., pH 7.4. Atria were allowed to equilibrate for 1 hr under a resting tension of 1 g.
The atrial rate and force were determined from contractions recorded by a Grass FT.03 force-displacement transducer and a Grass model 79 polygraph. The Basial atrial rate f or control atria (as determined by counting the frequency of contractions) was 258±7 bpm (n=29). Basal developed force of the spontaneously beating right atria was 0.33±0.06 g (n=10) . Dose-response curves for the peptides were obtained by cumulative addition of the respective peptides. Drug dose is calculated on the basis of the final concentration in the bath solution.

The test system of data set [3] is rat tail artery helical strip. The data set can be described thus: In vitro rat tail artery helical strip tension assay. As to conditions: precontracted with AVP, FIG. 20. An excerpt: We have developed a method for modeling the hypotensive effects of natural and synthetic chemical compounds using helically cut tail arteries from Sprague-Dawley rats in a Sawyer-Bartlestone chamber, measuring the change in tension with a force displacement transducer. This method and the effect of bovine PTH-(1-34) in this system is described in Blood Vessels, 22, 57 (1985). […] FIGS. 12, 16 and 20 illustrate the effect of the PTH analogues of this invention as measured using this in vitro technique. Alternatively, the strips may be precontracted using other pressor substances such as norepinephrine (NE) or KCl.
The assay was performed according to Pang et al., Blood Vessels, 22, 57 (1985). Sprague-Dawley rats were anaesthetized with pentobarbital and the tail artery excised and placed in ice-cold Krebs-Hanseleit solution (KHS) oxygenated with 95% O2, 5% CO2. […] The force generated by the strips was measured with a Grass FT03 force displacement transducer and recorded on a polygraph. […]
One to two minutes prior to addition of a peptide, the strips were contracted by addition of either arginine vasopressin (AVP), potassium chloride (KCl) or norepinephrine (NE) to the bath. The peptide was then added to the bath and the degree of relaxation measured. […] Drug dose is calculated on the basis of the final concentration in the bath solution.

Consider “PTH: parathyroid hormone (native PTH); in FIGS. 14 a-d it is bPTH-(1-34) [reference compound]”, for which the “condition of rats due to blood pressure” value in the data set on Sprague-Dawley rats (5 μg/kg, Sprague-Dawley rats) is given as “essentially moribund”. Besides, in data set [1], the “effect on KCl-induced intracellular [Ca2+]i increase” value is “inhibits intracellar [Ca^2+ ]i increases”.
Regarding “SVSEIQLMHNLGKHLNSMERVEWLAAALQDVHNF [Cs221]”, the “effect on mean arterial blood pressure” value in the data set with Sprague-Dawley rats (anesthetized Sprague-Dawley rats, FIGS. 15, 19) was “least decrease in blood pressure”. Besides, in data set [2] (FIG. 24), the “effect on contractility of right atrial tissue” value is reported as “minimal effect”. Besides, the “effect on contraction rate of right atrial tissue” value in data set [2] was “minimal effect”. Also, the “relaxation of rat tail artery helical strips” value in data set [3] is recorded as “least relaxation”. Moreover, in data set [1], the “effect on KCl-induced intracellular [Ca2+]i increase” value was “comparable to the inhibition of intracellular [Ca^2+ ]i increases by hPTH; also recorded: lower intracellular calcium increments”.

B1: Cs2001: human PTH 1-84, no substitution (SEQ ID NO:2) (peptide)
chain: SVSEIQLMHNLGKHLNSMERVEWLRKKLQDVHNFVALGASIAYRDGSSQRPRKKEDNVLVESHQKSLGEADKADVDVLIKAKPQ
For B1, in data set [2], the “effect on contraction rate of right atrial tissue” value was “increase the contraction rate”.
